{"source": "patent US20260242320A1", "about": "“USE OF CANNABIDIOL DERIVATIVE IN PREPARATION OF MEDICAMENT” (priority 2023, published 2026)", "key": {"[1]": {"experiment": "Y-maze test of short-term memory", "format": "in vivo, mice", "conditions": "CIAC001 20 mg/kg i.p.; THC 10 mg/kg i.p.", "experimental": "Mice were tested for short-term memory using a Y-maze task. Briefly, mice were placed into the Y-maze for 10 min once daily to habituate the apparatus for two consecutive days. After daily habituation, the mice were then treated with CIAC001 (20 mg/kg) or THC (10 mg/kg). On the 3rd day, mice were pretreated with CIAC001 or THC 45 min before the Y-maze test. Next, the “new arm” was blocked, and mice had 5 min to freely explore two arms (the “start arm” and the “old arm”, FIG. 8F). Mice were then removed from the Y-maze and placed into the cages for 2 min. During the test phase, mice were allowed to freely explore all three arms for 2 min, and the time spent in each arm was recorded and analyzed using the Noldus analyzing software. To eliminate olfactory interference, the Y-maze was wiped off with 70% alcohol after each test."}, "Tau, TrkB, Syn1, Aβ": {"tested_on": "Tau, TrkB, Syn1, Aβ", "experiment": "Western blot of Alzheimer's disease markers in mouse hippocampus", "format": "in vivo", "conditions": "transgene mice, 0, 0.2, 2, or 20 mg/kg", "experimental": "The protein samples from the mouse hippocampus were analyzed for Tau5, p-Tau (T231), p-Tau (S202), p-Tau (S404), p-TrkB (Y705), Syn1, Aβ1-42, and Aβ1-16 protein content using Western blot technique."}, "[2]": {"experiment": "CPP assay for rewarding effect of CIAC001", "format": "in vivo, mice", "conditions": "20 mg/kg i.p.", "experimental": "Conditional place conditioning (CPP) was conducted using the classic 10-consecutive-day procedure. On days 1 and 2, each mouse was separately placed into the CPP apparatus for 15 min to habituate the apparatus. On day 3 (preconditioning), the time spent in each compartment was recorded to determine any preference for the two compartments. […] During the conditioning phase, mice were separately isolated in the compartment for 30 min on 6 consecutive days. Mice were given morphine on days 4, 6, and 8, and vehicle (5 mL/kg) was administered on days 5, 7, and 9. The postconditioning phase was carried out 24 h after the last conditioning session. Each mouse was placed in the apparatus and explored freely, and the time spent in each compartment was recorded for 15 min. The CPP score(s) was calculated using the time spent in the drug-paired compartment minus the time spent in the vehicle-paired compartment."}, "Hif-1α": {"tested_on": "Hif-1α", "experiment": "Hif-1α western blot in mPFC after chronic morphine", "format": "in vivo", "conditions": "mice", "excerpt": "ImageJ was used for densitometric analysis."}, "morphine-treated mice": {"tested_on": "morphine-treated mice", "experiment": "Morphine-induced behavioral sensitization", "format": "in vivo", "conditions": "0.2 mg/kg i.p.", "experimental": "Mice were placed into the test chamber (40×40×40 cm^3) for 60 min to habituate the chamber for three consecutive days. […] Locomotor activity was recorded daily for 60 min after the administration of drugs. Next, all the mice were subjected to a 7-day withdrawal period (days 8-14). Subsequently, mice were given morphine (5 mg/kg, i.p.), and locomotor activity was recorded to determine behavioral sensitization."}, "[3]": {"experiment": "Body weight during 7 days of administration", "format": "in vivo, mice", "conditions": "during drug treatment vs vehicle", "experimental": "Mice were intraperitoneally injected with 20 mg/kg CIAC001 or 10 mg/kg THC once daily. After 1 h, the mice were anesthetized with isoflurane by a small animal anesthesia machine (R500IE, RWD Life Science Co) on day 2 and day 5. The respiratory rate of mice was recorded three times within 20 s. The weights of mice were recorded every day."}, "PKM2 protein": {"target": "PKM2 protein (Homo sapiens, UniProt P14618)", "sequence (P14618 whole entry, species assumed)": "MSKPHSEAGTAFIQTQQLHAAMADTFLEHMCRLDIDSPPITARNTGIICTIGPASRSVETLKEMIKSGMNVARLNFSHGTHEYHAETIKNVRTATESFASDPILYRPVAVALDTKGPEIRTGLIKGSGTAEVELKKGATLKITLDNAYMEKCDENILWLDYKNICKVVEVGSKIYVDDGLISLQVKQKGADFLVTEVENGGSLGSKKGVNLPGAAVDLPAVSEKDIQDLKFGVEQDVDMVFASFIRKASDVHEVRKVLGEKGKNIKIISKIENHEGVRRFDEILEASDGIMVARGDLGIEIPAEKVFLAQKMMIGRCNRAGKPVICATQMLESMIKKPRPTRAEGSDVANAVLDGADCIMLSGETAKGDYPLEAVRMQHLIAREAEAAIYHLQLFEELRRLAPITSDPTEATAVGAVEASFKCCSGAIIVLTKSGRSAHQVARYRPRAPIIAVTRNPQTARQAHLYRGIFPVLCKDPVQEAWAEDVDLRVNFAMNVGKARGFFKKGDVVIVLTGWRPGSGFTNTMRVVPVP", "experiment": "Fluorescence titration of purified PKM2", "format": "binding", "conditions": "PKM2 0.5 μM", "experimental": "PKM2 protein (0.5 μM) was titrated with increasing concentrations of CIAC001, and the fluorescence intensity (λex 280 nm; λem 337 nm) was recorded by a fluorescence spectrophotometer (Cary Eclipse, Agilent Technologies Inc., USA). Appropriate controls were subtracted from the spectra obtained from the samples. The data were fitted by the nonlinear least squares method using Equation 8, derived from equations 1-7.\nBecause [LP2]^3 is far less than (LT+PT)×[LP2]^2, Equation 6 can be simplified as Equation 7, allowing derivation of Equation 8: […]\nwhere F is the measured fluorescence; F0 is the initial fluorescence of PKM2 in the absence of CIAC001; FPL is an adjustable parameter for protein-ligand complex molar fluorescence; KD is the dissociation constant; LT is the total concentration of CIAC001; and PT is the total PKM2 concentration. The stoichiometry n was fitted according to the equation […]."}, "CB1 Receptor": {"target": "T1, CB1 Receptor (Homo sapiens, UniProt P21554)", "T1 construct": "expressed in transfected cells; host or cells: GloSensor 22-F HEK293 cells", "T1 sequence (P21554 whole entry)": "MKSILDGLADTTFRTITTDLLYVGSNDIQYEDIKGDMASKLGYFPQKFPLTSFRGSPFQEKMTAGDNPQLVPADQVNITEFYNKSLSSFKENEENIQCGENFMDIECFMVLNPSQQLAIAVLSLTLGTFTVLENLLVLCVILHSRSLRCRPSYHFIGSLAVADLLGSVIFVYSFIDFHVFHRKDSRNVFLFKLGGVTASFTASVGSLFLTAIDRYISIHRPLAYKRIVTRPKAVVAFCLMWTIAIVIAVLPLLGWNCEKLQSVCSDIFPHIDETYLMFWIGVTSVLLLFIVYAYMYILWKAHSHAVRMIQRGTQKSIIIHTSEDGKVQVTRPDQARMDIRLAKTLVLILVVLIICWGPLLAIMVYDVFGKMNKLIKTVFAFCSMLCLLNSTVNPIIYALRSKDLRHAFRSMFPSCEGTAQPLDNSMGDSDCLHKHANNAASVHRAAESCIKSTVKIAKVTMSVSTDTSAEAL", "experiment": "cAMP measurement, forskolin-induced cAMP accumulation, CB1", "format": "cell-based", "conditions": "cAMP assay", "experimental": "GloSensor 22-F HEK293 cells were transfected with plasmids encoding different receptors (CB1 and CB2). After 24 h, HEK293 cells were seeded at a density of 5×10^4 cells per well in 96-well plates and incubated for 8 h; then, the medium was removed, and 200 μL of serum-free DMEM medium containing 2% GloSensor cAMP substrate (Promega) was added. After 2 h incubation, the transfected cells were stimulated with different concentrations of ligands together with […]. The luminescence was recorded using a Multimode Plate Reader (En Vision, PerkinElmer)."}, "[4]": {"tested_on": "LPS-induced IL-1β, TNF-α, IL-6, iNOS, IL-10 mRNA in BV-2 cells", "experiment": "qRT-PCR of proinflammatory and M1/M2 marker mRNAs in LPS-treated BV-2 cells", "format": "cell-based", "experimental": "Total RNA was extracted from cells or mouse brains using the RNeasy Mini Kit. Isolated RNA was reverse-transcribed into cDNA using an RT2 Easy First Strand cDNA Synthesis Kit following the manufacturer's protocols. PCR amplification was conducted using synthetic primers, SYBR Green, and a TOptical Real-Time qPCR Thermal Cycler (Analytik Jena, Thuringia, Germany). The data were analyzed by the […] method, and Rpl711 or Rpl27 was used as an internal control."}, "[5]": {"conditions": "LPS-treated cells, mRNA by qPCR"}}, "note": "“Also recorded” adds a separate entry of the source."}
{"smiles": "C=C(C)[C@@H]1CCC(C)=C[C@H]1c1c(O)cc(C(C)n2nccn2)cc1O", "note": "(stereo partly drawn) [CIAC001, (1′R,2′R)-4-(1-(2H-1,2,3-Triazol-2-yl)ethyl)-5′-methyl-2′-(prop-1-en-2-yl)-1′,2′,3′,4′-tetrahydro-[1,1′-biphenyl]-2,6-diol]", "values": [{"measurement": "time spent on the new arm (Y maze)", "setting": "[1]", "result": "did not affect the time mice spent on the new arm"}, {"measurement": "Syn1 and Aβ levels", "setting": "Tau, TrkB, Syn1, Aβ", "result": "reduces Syn1 and Aβ levels"}, {"measurement": "Tau and TrkB phosphorylation", "setting": "Tau, TrkB, Syn1, Aβ", "result": "inhibits Tau and TrkB phosphorylation"}, {"measurement": "rewarding effect (CPP after 6 consecutive days of training)", "setting": "[2]", "result": "did not show any effect on CPP"}, {"measurement": "chronic morphine-induced Hif-1α overexpression in mPFC", "setting": "Hif-1α", "result": "inhibit chronic morphine-induced Hif-1α overexpression"}, {"measurement": "locomotor response to morphine challenge (expression of behavioral sensitization)", "setting": "morphine-treated mice; day 15", "result": "decreased the locomotor response"}, {"measurement": "development of morphine-induced behavioral sensitization (induction period)", "setting": "morphine-treated mice; mice", "result": "significantly inhibited; also recorded: ameliorated"}, {"measurement": "body weights", "setting": "[3]", "result": "did not change"}, {"measurement": "stoichiometry of CIAC001-PKM2 interaction", "setting": "PKM2 protein", "result": "0.54±0.07"}, {"measurement": "Kd", "setting": "PKM2 protein; intrinsic fluorescence quenching, read-out: dissociation constant KD", "result": "2.2 ± 0.2", "unit": "µM"}, {"measurement": "CB1 receptor activity", "setting": "CB1 Receptor", "result": "no apparent CB1/CB2 activity"}, {"measurement": "LPS-induced overexpression of IL-1β mRNA", "setting": "[4]; BV-2 cells", "result": "concentration-dependently inhibited"}, {"measurement": "LPS-induced overexpression of IL-6 mRNA", "setting": "[4]; BV-2 cells", "result": "concentration-dependently inhibited"}, {"measurement": "LPS-induced overexpression of TNF-α mRNA", "setting": "[4]; BV-2 cells", "result": "concentration-dependently inhibited"}, {"measurement": "expression of M1 phenotype markers IL-1β and iNOS", "setting": "[4]; [5]", "result": "inhibited LPS-induced increased expression"}, {"measurement": "expression of M2 phenotype marker IL-10", "setting": "[4]; [5]", "result": "attenuated LPS-induced decreased expression"}]}
